Measurements published in US9238631B2, “Radiolabeled amino acids for diagnostic imaging” (PIRAMAL IMAGING SA, priority 2011, dated 2016).

Tests used:
A549 tumor = settings: cited from earlier work
reactive lymph nodes = test: PET uptake in inflammatory lesions (streptozotocin-induced reactive lymph nodes); type: in vivo, mice; settings: dynamic PET 1 h, 3 days after streptozotocin
Procedure: To test the specificity of compounds from the present invention, compound [^18F]-41 was examined in an animal model of reactive lymph nodes in comparison to the clinically commonly used PET tracer FDG. Therefore, female immunocompetent NMRI mice (10 weeks old) were injected with streptozotocin (500 μg/40 μL PBS) in the right hind limb to induce an inflammatory reaction in the right popliteal and additional lymph nodes. PET imaging studies were performed 3 days after Streptozotocin injection. PET images were acquired dynamically for 1 h after injection of approximately 5-10 MBq. After the imaging study, region-of-interest (ROI) analysis was performed in the popliteal, inguinal and iliacal lymph nodes. At least 3 animals were examined per tracer.

[1] = test system: NCI-H460 (human NSCLC) cells; test: Time-dependent uptake and blocking of [^18F]-41 in NCI-H460 cells; type: cell-based; settings: co-incubation with 1 mM 41, 30 minutes
Procedure: NCI-H460 (human NSCLC) cells, grown adherently in 48 well plates were used for these experiments. Approximately 100.000 cells were incubated in PBS-buffer containing 0.1% BSA with 0.25 MBq [^18F]-41 for up to 60 minutes. A time-dependent uptake was observed during the 60 min incubation period. Approximately 13% of applied dose was taken up by the cells during the 60 min incubation period (FIG. 6). For the blocking study [^18F]-41 was co-incubated with 1 mM 41 for 30 minutes. After this time, the cell bound radioactivity was determined.

xCT (SLC7A11) = molecular target: T1, xCT (SLC7A11) (Homo sapiens, UniProt Q9UPY5); test: Competition profile indicating uptake via xCT (SLC7A11); type: cell-based; settings: co-incubation with 1 mM cold competitors, NCI-H460 cells
T1 construct: NCI-H460 tumor cells were co-incubated with the F-18 labeled tracer and several cold derivatives; endogenous in cells; host or cells: NCI-H460 tumor cells
T1 sequence (Q9UPY5 1-501): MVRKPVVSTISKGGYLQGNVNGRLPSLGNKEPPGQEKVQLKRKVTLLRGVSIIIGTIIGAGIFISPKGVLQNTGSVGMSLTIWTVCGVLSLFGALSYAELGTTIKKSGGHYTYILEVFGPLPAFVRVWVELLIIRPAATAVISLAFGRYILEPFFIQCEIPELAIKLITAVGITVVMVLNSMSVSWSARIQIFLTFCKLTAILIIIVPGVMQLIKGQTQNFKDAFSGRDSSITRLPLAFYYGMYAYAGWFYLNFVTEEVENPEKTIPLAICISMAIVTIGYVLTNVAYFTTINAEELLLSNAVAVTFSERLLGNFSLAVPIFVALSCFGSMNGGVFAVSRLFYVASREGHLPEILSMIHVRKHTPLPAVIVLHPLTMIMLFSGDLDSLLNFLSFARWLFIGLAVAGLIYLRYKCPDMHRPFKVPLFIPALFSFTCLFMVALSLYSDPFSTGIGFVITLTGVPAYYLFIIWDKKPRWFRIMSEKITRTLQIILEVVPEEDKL
T1 sequence (P08195 1-529 partner): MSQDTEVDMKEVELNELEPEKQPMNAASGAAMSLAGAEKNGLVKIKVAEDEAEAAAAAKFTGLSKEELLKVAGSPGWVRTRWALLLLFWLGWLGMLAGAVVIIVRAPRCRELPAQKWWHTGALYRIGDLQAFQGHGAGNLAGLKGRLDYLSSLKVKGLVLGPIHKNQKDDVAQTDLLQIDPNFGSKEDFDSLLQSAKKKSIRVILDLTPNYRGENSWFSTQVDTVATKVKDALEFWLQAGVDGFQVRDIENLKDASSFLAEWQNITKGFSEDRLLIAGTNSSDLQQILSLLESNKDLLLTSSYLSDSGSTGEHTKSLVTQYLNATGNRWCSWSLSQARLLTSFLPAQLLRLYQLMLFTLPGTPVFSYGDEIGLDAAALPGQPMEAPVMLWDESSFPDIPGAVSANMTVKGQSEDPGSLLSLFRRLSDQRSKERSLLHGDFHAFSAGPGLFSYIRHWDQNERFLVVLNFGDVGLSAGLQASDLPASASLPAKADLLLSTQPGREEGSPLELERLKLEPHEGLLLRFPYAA
Procedure: For determination of the responsible uptake mechanism, NCI-H460 tumor cells were co-incubated with the F-18 labeled tracer and several cold derivatives. These derivatives were used at a concentration of 1 mM, which is a large excess compared to the tracer. L-Glutamic acid, L-cystine, Carboxyphenylglycine (CPG) were used as competitors. In addition, also D-Glutamic acid, as well as L-aspartic acid and D-aspartic acid were used in this competition experiments. […] The same experiments were performed using [^18F]-1, [^18F]-4, [^18F]-9, [^18F]-8, [^18F]-25 and [^18F]-22.

[2] = test system: NCI-H460 (human NSCLC) cells; test: Cell uptake studies: 30 min uptake in H460 cells; type: cell-based; settings: 0.25 MBq tracer, PBS 0.1% BSA
Procedure: For determination of the biological activity, the F18 labeled derivatives were used as tracers in cell uptake experiments. NCI-H460 (human NSCLC) cells, grown adherently in 48 well plates were used for these uptake-experiments. Approximately 100.000 cells were incubated with 0.25 MBq of the tracers for 30 min in PBS-buffer containing 0.1% BSA. After this time, the cell-bound radioactivity was determined using a γ-counter.

NCI-H460 tumor [3] = test: In vivo biodistribution in NCI-H460 tumor bearing mice; settings: for T/Blood / T/Muscle: 1 h post injection
Procedure: (§1) To test the pharmacokinetic properties of compounds from the present invention, all F18-labeled compounds were examined by biodistribution studies in NCI-H460 tumor bearing mice. Female NMRI (nu/nu) mice were inoculated with 5×10^6 NCI-H460 tumor cells 8 to 10 days before the biodistribution studies. 185 kBq of activity of the fluorinated compound was injected and at least n=3 mice were used for every time point. After injection of the F18-labeled compound, mice were sacrificed at defined time-points. All organs were removed and radioactivity was determined using a γ-counter.
To compare the tumor uptake and retention of radioactivity of different ^18F-labeled derivatives from the present invention, biodistribution studies were performed in NCI-H460 tumor bearing NMRI (nu/nu) mice as described above.
To compare the kidney clearance of several ^18F-labeled derivatives from the present invention, biodistribution studies were performed in NCI-H460 tumor bearing female NMRI (nu/nu) mice as described above. […] After 2 h p.i., less than 1% ID/g can be found in the kidneys.
For comparison of pancreas uptake and clearance of several ^18F-labeled derivatives from the present invention, biodistribution studies were performed in NCI-H460 tumor bearing NMRI (nu/nu) mice as described above. […] After 2 h p.i., less than 2% ID/g can be found in the pancreas.
as §1, with “and” for “for every time point. After injection of the F18-labeled compound, mice were”, “time-points raning from 15 min pi up to 2 h p.i.” for “time-points.”, “γ-counter. […] High tumor uptake values of >3% ID/g were obtained with various compounds from the present invention.” for “γ-counter.”

NCI-H460 tumor [4] = test: PET imaging in NCI-H460 tumor bearing nude-rats; type: in vivo; settings: PET ROI analysis, 1 h p.i.
Procedure: c) Beside PET-imaging studies in mice, also the imaging properties of [^18F]-12 in rats were examined. NCI-H460 tumor cells were inoculated into the right flank of nude-rats (RH-Foxn1 nu/nu) 8 to 10 days before the PET study. PET images were acquired at 60 min after injection of approximately 10 MBq for 10 minutes. The H460 tumor was nicely visible (0.9% ID/g as determined by ROI analysis). Beside some minor uptake into the liver and kidneys due to the excretion of the compound, no uptake into other non-target tissues was observed.
To test the imaging properties, compounds from the present invention were evaluated in PET imaging studies using tumor bearing rats. NCI-H460 tumor cells were inoculated into the right flank of nude-rats (RH-Foxn1 nu/nu) 8 to 10 days before the PET study. PET images were acquired at 60 min after injection of approximately 10 MBq for 10 minutes. After the imaging study, region-of-interest (ROI) analysis was performed and activity in tumor, liver and kidney was determined. […] High tumor uptake values of >1% […] in this rat model were obtained with various compounds from the present invention. A favorable clearance profile of all compounds enables excellent tumor detection in PET imaging studies in tumor bearing rats.

For `N[C@@H](CC(CCC[18F])C(=O)O)C(=O)O` (stereo partly shown) [4-(3-[^18F]fluoropropyl)glutamic acid], the Kidney uptake (A549 tumor; 30 min post injection) is given as 6.4 % ID/g, the pancreas uptake (A549 tumor; 30 min post injection) is given as 8.5 % ID/g and the tumor uptake (A549 tumor; 1 h post injection) is given as 1.6 % ID/g.
With `OC[C@H]1OC(O)[C@H]([18F])[C@@H](O)[C@@H]1O` (stereo partly shown) [FDG, 2-[^18F]fluorodeoxyglucose, reference compound] the “time-course of activity in the reactive lymph nodes” value (reactive lymph nodes) was “remained almost constant”.
With `N[C@@H](CCC(Cc1ccc(OCF)cc1)C(=O)O)C(=O)O` (stereo partly drawn) [Example 41, (2S)-2-amino-5-[4-(fluoromethoxy)benzyl]hexanedioic acid] the “blocking of [^18F]-41 uptake” value [1] was “strong competitor”.
With `N[C@@H](C[C@H](CCCc1ccc(OCC[18F])cc1)C(=O)O)C(=O)O` [[^18F]-25, (4S)-4-{3-[4-(2-[^18F]Fluoroethoxy)phenyl]propyl}-L-glutamic acid] the “competition profile / uptake mechanism of the tracer” value (xCT (SLC7A11)) was “identical competition profile”, the “30 min uptake into H460 cells [%/100.000 cells]” value [2] was 3.1 ± 01 %/100.000 cells and the “Kidney (% ID/g at 1 h p.i.)” value (NCI-H460 tumor [3]) was 0.2 ± 0.05 % ID/g. For the same molecule, the “Liver (% ID/g at 1 h p.i.)” value (NCI-H460 tumor [3]) was 0.2 ± 0.1 % ID/g, the “Pancreas (% ID/g at 1 h p.i.)” value (NCI-H460 tumor [3]) was 0.04 ± 0.01 % ID/g and the “Tumor (% ID/g at 1 h p.i.)” value (NCI-H460 tumor [3]) was 0.5 ± 0.1 % ID/g. The “Urine (% ID at 1 h p.i.)” value (NCI-H460 tumor [3]) was 86.6 ± 4.4 % ID, the T/Blood (NCI-H460 tumor [3]) was 9.7 and the T/Muscle (NCI-H460 tumor [3]) was 32.2.
For `N[C@@H](CC(Cc1ccc(CCC[18F])cc1)C(=O)O)C(=O)O` (stereo partly drawn) [[^18F]-9, 4-[4-(3-[^18F]Fluoropropyl)benzyl]-L-glutamic acid], the “competition profile / uptake mechanism of the tracer” value (xCT (SLC7A11)) was “identical competition profile”, the “30 min uptake into H460 cells [%/100.000 cells]” value [2] was 4.3 ± 0.2 %/100.000 cells and the “Kidney (% ID/g at 1 h p.i.)” value (NCI-H460 tumor [3]) was 0.7 ± 0.04 % ID/g. For the same molecule, the “Liver (% ID/g at 1 h p.i.)” value (NCI-H460 tumor [3]) was 0.2 ± 0.1 % ID/g, the “Pancreas (% ID/g at 1 h p.i.)” value (NCI-H460 tumor [3]) was 0.1 ± 0.01 % ID/g and the “Tumor (% ID/g at 1 h p.i.)” value (NCI-H460 tumor [3]) was 1.8 ± 0.9 % ID/g. The “Urine (% ID at 1 h p.i.)” value (NCI-H460 tumor [3]) was 86.3 ± 7.1 % ID, the T/Blood (NCI-H460 tumor [3]) was 20.5 and the T/Muscle (NCI-H460 tumor [3]) was 61.7.
In the case of `N[C@@H](CC(Cc1ccc(OCCC[18F])cc1)C(=O)O)C(=O)O` (stereo partly drawn) [[^18F]-4, 4-[4-(3-[^18F]Fluoropropoxy)benzyl]-L-glutamic acid], the “competition profile / uptake mechanism of the tracer” value (xCT (SLC7A11)) is reported as “identical competition profile”, the “30 min uptake into H460 cells [%/100.000 cells]” value [2] is reported as 10.0 ± 0.3 %/100.000 cells and the “Kidney (% ID/g at 1 h p.i.)” value (NCI-H460 tumor [3]) is reported as 1.0 ± 0.3 % ID/g. The “Liver (% ID/g at 1 h p.i.)” value (NCI-H460 tumor [3]) was 1.5 ± 0.5 % ID/g, the “Pancreas (% ID/g at 1 h p.i.)” value (NCI-H460 tumor [3]) was 0.8 ± 0.1 % ID/g and the “Tumor (% ID/g at 1 h p.i.)” value (NCI-H460 tumor [3]) was 2.8 ± 1.8 % ID/g. The “Urine (% ID at 1 h p.i.)” value (NCI-H460 tumor [3]) was 79.8 ± 2.2 % ID, the T/Blood (NCI-H460 tumor [3]) was 14.5 and the T/Muscle (NCI-H460 tumor [3]) was 38.8. The “Kidney (% ID/g at 1 h p.i.)” value (NCI-H460 tumor [4]) was 1.2 % ID/g, the “Liver (% ID/g at 1 h p.i.)” value (NCI-H460 tumor [4]) was 1.1 % ID/g and the “Tumor (Max % ID/g at 1 h p.i.)” value (NCI-H460 tumor [4]) was 1 % ID/g. For the same molecule, the “Tumor (Mean % ID/g at 1 h p.i.)” value (NCI-H460 tumor [4]) was 0.7 % ID/g.
In the case of `N[C@@H](CC(Cc1ccc(O[C@H]2C[C@@H]([18F])C2)cc1)C(=O)O)C(=O)O` (stereo partly drawn) [[^18F]-22, 4-{4-[(cis-3-[^18F]Fluorocyclobutyl)oxy]benzyl}-L-glutamic acid], the “competition profile / uptake mechanism of the tracer” value (xCT (SLC7A11)) is reported as “identical competition profile”, the “30 min uptake into H460 cells [%/100.000 cells]” value [2] is reported as 4.2 ± 0.1 %/100.000 cells and the “Kidney (% ID/g at 1 h p.i.)” value (NCI-H460 tumor [3]) is reported as 1.8 ± 0.6 % ID/g. The “Liver (% ID/g at 1 h p.i.)” value (NCI-H460 tumor [3]) was 4.1 ± 0.8 % ID/g, the “Pancreas (% ID/g at 1 h p.i.)” value (NCI-H460 tumor [3]) was 0.63 ± 0.04 % ID/g and the “Tumor (% ID/g at 1 h p.i.)” value (NCI-H460 tumor [3]) was 1.3 ± 0.5 % ID/g. For the same molecule, the “Urine (% ID at 1 h p.i.)” value (NCI-H460 tumor [3]) was 64.9 ± 4.3 % ID, the T/Blood (NCI-H460 tumor [3]) was 5.1 and the T/Muscle (NCI-H460 tumor [3]) was 32.3. The “Kidney (% ID/g at 1 h p.i.)” value (NCI-H460 tumor [4]) was 0.5 % ID/g, the “Liver (% ID/g at 1 h p.i.)” value (NCI-H460 tumor [4]) was 0.6 % ID/g and the “Tumor (Max % ID/g at 1 h p.i.)” value (NCI-H460 tumor [4]) was 0.9 % ID/g. For the same molecule, the “Tumor (Mean % ID/g at 1 h p.i.)” value (NCI-H460 tumor [4]) was 0.3 % ID/g.
